# Patent publication US11267844B2, “Spirothietane nucleosides” (Janssen Pharmaceutica NV, priority 2017, dated 2022)
# Like-named read-outs stand apart in the source and are kept apart here.
# Assays:
# [1] = system: HCV replicon (NS3-NS5B regions of HCV type 1b) in Huh-7 luc/neo cells; experiment: HCV replicon assay (Huh-Luc cells, luciferase read-out); assay type: cell-based; conditions: Hepatitis C virus
# From the text: The compounds of Formula (I) were examined for activity against HCV in a cellular assay. […] The cellular assay was based on a bicistronic expression construct, as described by Lohmann et al. (1999) Science vol. 285 pp. 110-113 with modifications described by Krieger et al. (2001) Journal of Virology 75: 4614-4624, in a multi-target screening strategy.
# In essence, the method was as follows. The assay utilized the stably transfected cell line Huh-7 luc/neo (hereafter referred to as Huh-Luc). This cell line harbors an RNA encoding a bicistronic expression construct comprising the wild type NS3-NS5B regions of HCV type 1b translated from an internal ribosome entry site (IRES) from encephalomyocarditis virus (EMCV), preceded by a reporter portion (FfL-luciferase), and a selectable marker portion (neo^R, neomycine phosphotransferase). The construct is bordered by 5′ and 3′ NTRs (non-translated regions) from HCV genotype 1b. Continued culture of the replicon cells in the presence of G418 (neo^R) is dependent on the replication of the HCV-RNA. The stably transfected replicon cells that express HCV-RNA, which replicates autonomously and to high levels, encoding inter alia luciferase, were used for screening the antiviral compounds.
# The replicon cells were plated in 384-well plates in the presence of the test and control compounds which were added in various concentrations. Following an incubation of three days, HCV replication was measured by assaying luciferase activity (using standard luciferase assay substrates and reagents and a Perkin Elmer ViewLux™ ultraHTS microplate imager). Replicon cells in the control cultures have high luciferase expression in the absence of any inhibitor. The inhibitory activity of the compound on luciferase activity was monitored on the Huh-Luc cells, enabling a dose-response curve for each test compound. EC50 values were then calculated, which value represents the amount of the compound required to decrease the level of detected luciferase activity by 50%, or more specifically, the ability of the genetically linked HCV replicon RNA to replicate.
# CHIKV strain S27 = experiment: CHIKV CPE inhibition assay in Huh7 cells; assay type: cell-based; conditions: Chikungunya virus
# Description: The antiviral activities of the nucleoside analogs against chikungunya virus (CHIKV) were tested using a cell-based high-throughput CPE (cytopathic effect) inhibition assay. In this assay, CHIKV strain S27 and Huh7 cells (a human hepatoma cell line) were employed. The test compounds were prepared in a 9-point fourfold serial dilutions and plated in a 384-well plate. Then, a density of 8000 cells/well and an MOI (Multiplicity of Infection) of 0.25 CHIKV were added to each well. The plates were incubated at 37° C./5% CO2 for 2 days. The antiviral activity of a test compound was measured by addition of an ATPLite™ 1-step kit (PerkinElmer), which measures the ATP levels in live cells protected from viral CPE by a test compound. The cytotoxicity of test compounds was measured in parallel in the absence of virus infection. The readout is luminescence.
# [2] = Cytotoxicity in Huh-7 cells (ATPlite cell viability); assay type: cell-based; conditions: human, Table 1A, read-out: Tox Huh-7 (CC50)
# Description: (§1) The antiviral activity of the compounds against DENV-2/16681/eGFP was determined in a phenotypic antiviral assay with eGFP read-out, a measure for the amount of virus (TV-WI-03476 and TV-WI-05601). In parallel, cytotoxicity of the compounds was measured using ATPLite™ (PerkinElmer, Waltham, Mass.). The assay was performed in two different cell-lines (Vero and Huh-7) to exclude cell-specific activity of the compound.
# (§2) In parallel, cytotoxic effects of the compounds (50% cytotoxic concentration [CC50] and 90% cytotoxic concentration [CC90]) were evaluated using an ATPlite cell viability luminescence assay (PerkinElmer). To this end, ATPlite was added to the wells according to the supplier's instructions once the eGFP read-out was performed, and the luminescence was measured; a measure directly relating to the number of viable cells. The CC50 was determined as the 50% inhibitory concentration for the luminescent signal in compound-treated DENV-infected cells compared to untreated DENV-infected cells (virus control), using a medium control as baseline of emitted light (i.e., 0% signal).
# [3] = Cytotoxicity in Vero cells (ATPlite cell viability); assay type: cell-based; conditions: African green monkey, Table 1A, read-out: Tox Vero (CC50)
# Description: as §1, §2
# DENV-2/16681/eGFP [4] = experiment: Antiviral activity against DENV-2/16681/eGFP in Huh-7 cells (eGFP read-out); assay type: cell-based, dengue virus serotype 2; conditions: Dengue virus, DENV2, Huh-7, 72 h, read-out: DENV Huh-7 (EC50, μM)
# Description: as §1
# (§3) DENV-2/16681/eGFP was produced by the transfection of the in vitro transcribed RNA of plasmid pFK-DVs-G2A (purchased from Prof. R. Bartenschlager, University of Heidelberg, Germany; FIG. 1) into Huh-7 cells (human hepatocarcinoma cells; kindly provided by Prof. R. Bartenschlager) (TV-WI-04247).
# (§4) In brief, 2,500 Vero cells (African green monkey kidney cells; European Collection of Cell Cultures [ECACC], Porton Down, UK; catalogue number 84113001) or Huh-7 cells were seeded in 384-well plates containing 9-fold serially diluted test compound. After incubating 24 h at 37° C., Vero and Huh-7 cells were infected with DENV-2/16681/eGFP at a multiplicity of infection (MOI) of 1 and 5, respectively. After 3 days of incubation at 37° C., the viral replication was quantified by measuring eGFP expression in the cells with a laser microscope. The 50% effective concentration (EC50) was defined as the concentration inhibiting 50% of the eGFP expression of the compound-treated DENV-infected cells vs. the untreated DENV-infected cells (virus control), using the cell controls as baseline of eGFP signal (i.e., 0% signal). In the same way, the 90% effective concentration (EC90) was calculated.
# DENV-2/16681/eGFP [5] = experiment: Antiviral activity against DENV-2/16681/eGFP in Vero cells (eGFP read-out); assay type: cell-based, dengue virus serotype 2; conditions: Dengue virus, DENV2, Vero, 72 h, read-out: DENV Vero (EC50, μM)
# Description: as §1, §3, §4
# [6] = Huh-7, Table 1C, comparison with spiro-oxetane derivatives, read-out: HCV, Huh-7 (EC50)
# [7] = Huh-7, Table 1C, comparison with spiro-oxetane derivatives, read-out: CHIKV, Huh7 (EC50)
# [8] = Huh-7, 72 h, Table 1A, Huh-Luc replicon cells, 3 days, read-out: HCV Huh-7 (EC50)
# [9] = Huh-7, 48 h, Table 1A, Huh7 cells, MOI 0.25, 2 days, read-out: CHIKV Huh-7 (EC50)
# [10] = Huh-7, 48 h, read-out: CHIKV Huh-7 (EC50, μM)
Compound,"EC50 [1, 6] [µM]",EC50 (CHIKV strain S27; [7]) [µM],CC50 [2] [µM],CC50 [3] [µM],"EC50 [1, 8] [µM]",EC50 (DENV-2/16681/eGFP [4]) [µM],EC50 (CHIKV strain S27; [9]) [µM],EC50 (DENV-2/16681/eGFP [5]) [µM],EC50 (CHIKV strain S27; [10]) [µM]
CC(C)OC(=O)[C@H](C)NP(=O)(OC[C@H]1O[C@@H](n2ccc(=O)[nH]c2=O)[C@@]2(CCO2)[C@@H]1O)Oc1ccccc1 (mixture of isomers) [reference compound],21,> 100,,,,,,,
CC(C)OC(=O)[C@H](C)NP(=O)(OC[C@@]1(F)O[C@@H](n2ccc(=O)[nH]c2=O)[C@@]2(CCO2)[C@@H]1O)Oc1ccccc1 (mixture of isomers) [reference compound],> 100,> 100,,,,,,,
"CC(C)OC(=O)C(C)NP(=O)(OC[C@@]1(N=[N+]=[N-])O[C@@H](n2ccc(=O)[nH]c2=O)[C@@]2(CCS2)[C@@H]1O)Oc1ccccc1 (stereo in doubt) [Compound 45, isopropyl (2R)-2-[[[(4R,5R,6R,8R)-6-azido-8-(2,4-dioxopyrimidin-1-yl)-5-hydroxy-7-oxa-1-thiaspiro[3.4]octan-6-yl]methoxy-phenoxy-phosphoryl]amino]propanoate]",,,> 100,> 100,5,62,> 100,62,
"O=c1ccn([C@@H]2O[C@H](CO)[C@@H](O)[C@]23CCS3)c(=O)[nH]1 [Compound 7, 1-((4R,5R,7R,8R)-8-hydroxy-7-(hydroxymethyl)-6-oxa-1-thiaspiro[3.4]octan-5-yl)pyrimidine-2,4(1H,3H)-dione]",,,> 100,> 100,> 100,,,> 100,
"CC(C)OC(=O)[C@H](C)NP(=O)(OC[C@H]1O[C@@H](n2ccc(=O)[nH]c2=O)[C@@]2(CCS2)[C@@H]1O)Oc1ccccc1 (stereo partly drawn) [Compound 9, (2S)-isopropyl 2-(((((4R,5R,7R,8R)-5-(2,4-dioxo-3,4-dihydropyrimidin-1(2H)-yl)-8-hydroxy-6-oxa-1-thiaspiro[3.4]octan-7-yl)methoxy)(phenoxy)phosphoryl)amino)propanoate]",1,18,> 100,> 100,1,9,18,> 100,
"CC(C)C(=O)OC[C@H]1O[C@@H](n2ccc(=O)[nH]c2=O)[C@@]2(CCS2)[C@@H]1OC(=O)C(C)C [Compound 10, (4R,5R,7R,8R)-5-(2,4-dioxo-3,4-dihydropyrimidin-1(2H)-yl)-7-((isobutyryloxy)methyl)-6-oxa-1-thiaspiro[3.4]octan-8-yl isobutyrate]",,,> 100,> 100,> 100,> 100,,> 100,> 100
"CC(C)C(=O)OC[C@H]1O[C@@H](n2ccc(N)nc2=O)[C@@]2(CCS2)[C@@H]1OC(=O)C(C)C [Compound 11, (4R,5R,7R,8R)-5-(4-amino-2-oxopyrimidin-1(2H)-yl)-7-((isobutyryloxy)methyl)-6-oxa-1-thiaspiro[3.4]octan-8-yl isobutyrate]",,,> 100,> 100,> 100,> 100,,> 100,> 100
"Nc1ccn([C@@H]2O[C@H](CO)[C@@H](O)[C@]23CCS3)c(=O)n1 [Compound 12, 4-amino-1-((4R,5R,7R,8R)-8-hydroxy-7-(hydroxymethyl)-6-oxa-1-thiaspiro[3.4]octan-5-yl)pyrimidin-2(1H)-one]",,,> 100,> 100,> 100,> 100,,> 100,> 100
"CC(C)OC(=O)[C@H](C)NP(=O)(OC[C@H]1O[C@@H](n2ccc(N)nc2=O)[C@@]2(CCS2)[C@@H]1O)Oc1ccccc1 (stereo partly drawn) [Compound 17, (2S)-isopropyl 2-(((((4R,5R,7R,8R)-5-(4-amino-2-oxopyrimidin-1(2H)-yl)-8-hydroxy-6-oxa-1-thiaspiro[3.4]octan-7-yl)methoxy)(phenoxy)phosphoryl)amino)propanoate]",,,> 50,> 50,> 50,19,> 50,> 50,
"O=c1ccn([C@@H]2O[C@](F)(CO)[C@@H](O)[C@]23CCS3)c(=O)[nH]1 [Compound 22, 1-((4R,5R,7S,8R)-7-fluoro-8-hydroxy-7-(hydroxymethyl)-6-oxa-1-thiaspiro[3.4]octan-5-yl)pyrimidine-2,4(1H,3H)-dione]",,,> 100,> 100,84,69,,63,> 100
"CC(C)OC(=O)[C@H](C)NP(=O)(OC[C@@]1(F)O[C@@H](n2ccc(=O)[nH]c2=O)[C@@]2(CCS2)[C@@H]1O)Oc1ccccc1 (stereo partly drawn) [Compound 23, (2S)-isopropyl 2-(((((4R,5R,7S,8R)-5-(2,4-dioxo-3,4-dihydropyrimidin-1(2H)-yl)-7-fluoro-8-hydroxy-6-oxa-1-thiaspiro[3.4]octan-7-yl)methoxv)(phenoxy)phosphoryl)amino)propanoate]",2,3,> 100,> 100,2,14,3,85,
"CCCCOC(=O)[C@H](C)NP(=O)(OC[C@@]1(F)O[C@@H](n2ccc(=O)[nH]c2=O)[C@@]2(CCS2)[C@@H]1O)Oc1ccccc1 (stereo partly drawn) [Compound 25, (2S)-butyl 2-(((((4R,5R,7S,8R)-5-(2,4-dioxo-3,4-dihydropyrimidin-1(2H)-yl)-7-fluoro-8-hydroxy-6-oxa-1-thiaspiro[3.4]octan-7-yl)methoxy)(phenoxy)phosphoryl)amino)propanoate]",,,> 100,> 100,2,4,3,35,
